Assay results published in ChEMBL document CHEMBL2176966, “Discovery of 6,7-dihydro-5H-pyrrolo[2,3-a]pyrimidines as orally available G protein-coupled receptor 119 agonists” (J Med Chem, 2012).
The source made the active and inactive calls. The calls are words filed in the database; no cut-off is given here.

System: Mus musculus
Experiment: Dose normalized AUC (0 to 24 hrs) in mouse at 30 mg/kg
Assay type: ADME, organism-based
Parameters: dose 30 mg/kg
Settings: in vivo

CCc1cnc(N2CCC(Oc3ncnc4c3CCN4c3ccc(S(C)(=O)=O)cc3F)CC2)nc1 showed an AUC/dose of 0.04 µg·h/mL.

System: not listed separately
Experiment: AUC (0 to 24 hrs) in rat at 10 mg/kg
Assay type: ADME, organism-based
Parameters: time < 24 hr, dose 10 mg/kg
Settings: plasma

For CC(C)c1noc(N2CCC(Oc3ncnc4c3CCN4c3ccc(S(C)(=O)=O)cc3F)CC2)n1, the AUC(0-t) at 24 h was 500 ng·h/mL.

Biological target: T1, Glucose-dependent insulinotropic receptor (Homo sapiens, UniProt Q8TDV5)
T1 sequence (Q8TDV5 whole entry): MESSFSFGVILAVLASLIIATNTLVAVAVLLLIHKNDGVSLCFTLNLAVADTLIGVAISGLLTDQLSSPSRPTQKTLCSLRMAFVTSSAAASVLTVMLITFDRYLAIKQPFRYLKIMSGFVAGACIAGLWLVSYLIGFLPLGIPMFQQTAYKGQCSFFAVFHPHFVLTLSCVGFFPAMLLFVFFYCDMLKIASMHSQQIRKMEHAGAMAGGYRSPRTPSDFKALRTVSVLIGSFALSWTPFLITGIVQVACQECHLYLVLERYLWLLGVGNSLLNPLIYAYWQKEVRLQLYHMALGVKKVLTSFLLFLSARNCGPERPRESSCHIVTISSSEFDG
Experiment: Agonist activity at human GPR119 receptor expressed in CHO-K1 cells co-expressing 6CRE-luciferase gene after 5 hrs by luciferase reporter gene assay
Assay type: functional, cell-based
Settings: cho-k1

CC(C)OC(=O)N1CCC(Oc2ncnc3c2CC(C)N3c2ccc(S(C)(=O)=O)cc2F)CC1 (single isomer, unassigned; (+)) showed a pEC50 of less than 5.

Same assay, conditions: read-out: EC50

Work on O=[N+]([O-])c1c(Nc2ccc(-n3cncn3)cc2)ncnc1N1CCC(Sc2ccccn2)CC1 yielded an EC50 of 200 nM.

Same assay, conditions: read-out: pEC50 (converted)

Point of comparison: Cc1nc(OC2CCN(C(=O)OC(C)C)CC2)c2c(n1)N(c1ccc(S(C)(=O)=O)cc1F)CC2, EC50 100 nM. Against it:
- CCOC(=O)N1CCC(Oc2ncnc3c2CCN3c2ccc(S(C)(=O)=O)cc2F)CC1 — 2.5-fold higher, 251 nM
- CCCOC(=O)N1CCC(Oc2ncnc3c2CCN3c2ccc(S(C)(=O)=O)cc2F)CC1 — within 1.5-fold, 79.4 nM
- CS(=O)(=O)c1ccc(N2CCc3c(OC4CCN(C5=NCCCN5)CC4)ncnc32)c(F)c1 — 20-fold higher, 2000 nM
- CCN(CC)C(=O)CN1CCC(Oc2ncnc3c2CCN3c2ccc(S(C)(=O)=O)cc2F)CC1 — higher, > 10000 nM
- CC(C)OC(=O)N1CCC(N(C)c2ncnc3c2CCN3c2ccc(S(C)(=O)=O)cc2F)CC1 — 6.3-fold higher, 631 nM
- CC(C)(C)OC(=O)N1CCC(Oc2cccc3c2ccn3-c2ccc(S(C)(=O)=O)cc2)CC1 — 6.3-fold higher, 631 nM
- COC(=O)N1CCC(Oc2ncnc3c2CCN3c2ccc(S(C)(=O)=O)cc2F)CC1 — 3.2-fold higher, 316 nM
- CC(C)OC(=O)N1CCC(Oc2ncnc3c2CC(C)N3c2ccc(S(C)(=O)=O)cc2F)CC1 (single isomer, unassigned; (-)) — higher, > 10000 nM
- CC(C)OC(=O)N1CCC(Oc2ncnc3c2CCN3c2ccc(C#N)cn2)CC1 — 7.9-fold higher, 794 nM
- CC(C)COC(=O)N1CCC(Oc2ncnc3c2CCN3c2ccc(S(C)(=O)=O)cc2F)CC1 — 4-fold lower, 25.1 nM
- N#CN1CCC(O)CC1 — 3.2-fold higher, 316 nM
- CSc1ccc(N2CCc3c(OC4CCN(C(=O)OC(C)C)CC4)ncnc32)c(F)c1 — 4-fold higher, 398 nM
- CC(C)OC(=O)N1CCC(Oc2ncnc3c2CCN3c2ccc(C#N)c(F)c2)CC1 — 4-fold higher, 398 nM
- Cc1ncccc1N1CCc2c(OC3CCN(C(=O)OC(C)C)CC3)ncnc21 — higher, > 10000 nM
- CN(C)S(=O)(=O)N1CCC(Oc2ncnc3c2CCN3c2ccc(S(C)(=O)=O)cc2F)CC1 — 4-fold higher, 398 nM
- CC(C)OC(=O)N1CCC(Oc2ncnc3c2CCN3c2ccc(S(C)(=O)=O)cn2)CC1 — within 1.5-fold, 126 nM
- CNc1nc(OC2CCN(C(=O)OC(C)C)CC2)c2c(n1)N(c1ccc(S(C)(=O)=O)cc1F)CC2 — higher, > 10000 nM
- CC(C)OC(=O)N1CCC(Sc2ncnc3c2CCN3c2ccc(S(C)(=O)=O)cc2F)CC1 — within 1.5-fold, 79.4 nM
- CC(C)OC(=O)N1CCC(S(=O)(=O)c2ncnc3c2CCN3c2ccc(S(C)(=O)=O)cc2F)CC1 — higher, > 10000 nM
- COCCOC(=O)N1CCC(Oc2ncnc3c2CCN3c2ccc(S(C)(=O)=O)cc2F)CC1 — 3.2-fold higher, 316 nM
- CC(C)c1noc(N2CCC(Oc3ncnc4c3CCN4c3ccc(S(C)(=O)=O)cc3F)CC2)n1 — within 1.5-fold, 79.4 nM
- CC(C)OC(=O)N1CCC(Oc2ncnc3c2CCN3c2ccc(C#N)cc2F)CC1 — 1.6-fold lower, 63.1 nM
- CC(C)(C)OC(=O)N1CCC(Oc2ncnc3c2CCN3c2ccc(S(C)(=O)=O)cc2F)CC1 — 5-fold lower, 20 nM
- CC(C)OC(=O)N1CCC(Oc2ncnc3c2CCN3c2ccc([S@@+](C)[O-])cc2F)CC1 — 6.3-fold higher, 631 nM
- CC(C)OC(=O)N1CCC(Oc2ncnc3c2CCN3c2ccc(S(C)(=O)=O)c(F)c2)CC1 — 1.6-fold higher, 158 nM
- CC(C)S(=O)(=O)N1CCC(Oc2ncnc3c2CCN3c2ccc(S(C)(=O)=O)cc2F)CC1 — 13-fold higher, 1260 nM
- CC(C)OC(=O)N1CCC(Oc2ncnc3c2CCN3c2ccc(-c3cccn3C)cc2F)CC1 — 1.6-fold higher, 158 nM
- CC(C)(C)OC(=O)N1CCC(Oc2cccc3c2CCN3c2ccc(S(C)(=O)=O)cc2)CC1 — 1.6-fold higher, 158 nM
- CC(C)c1noc(N2CCC(O)CC2)n1 — 2-fold lower, 50.1 nM
- CC(C)OC(=O)N1CCC(Oc2ncnc3c2CCN3c2ccc(F)cn2)CC1 — higher, > 10000 nM
- CC(C)OC(=O)N1CCC(Nc2ncnc3c2CCN3c2ccc(S(C)(=O)=O)cc2F)CC1 — 20-fold higher, 2000 nM
- Cc1nc(OC2CCN(c3nc(C(C)C)no3)CC2)c2c(n1)N(c1ccc(S(C)(=O)=O)cc1F)CC2 — 2.5-fold higher, 251 nM
- CC(C)OC(=O)N1CCC(Oc2nc(N)nc3c2CCN3c2ccc(S(C)(=O)=O)cc2F)CC1 — 7.9-fold higher, 794 nM
- CC(C)OC(=O)N1CCC(Oc2cccc3c2CCN3c2ccc(S(C)(=O)=O)cc2)CC1 — 5-fold higher, 501 nM
- CC(C)SC(=O)N1CCC(Oc2ncnc3c2CCN3c2ccc(S(C)(=O)=O)cc2F)CC1 — 10-fold lower, 10 nM
- CCS(=O)(=O)N1CCC(Oc2ncnc3c2CCN3c2ccc(S(C)(=O)=O)cc2F)CC1 — 16-fold higher, 1580 nM
- CC(C)OC(=O)N1CCC(Oc2ncnc3c2CCN3c2ccc(S(C)(=O)=O)cc2)CC1 — within 1.5-fold, 126 nM
- Cc1nc(OC2CCN(C(=O)OC(C)(C)C)CC2)c2c(n1)N(c1ccc(S(C)(=O)=O)cc1F)CC2 — within 1.5-fold, 126 nM
- CCSC(=O)N1CCC(Oc2ncnc3c2CCN3c2ccc(S(C)(=O)=O)cc2F)CC1 — 3.2-fold lower, 31.6 nM
- CCCCOC(=O)N1CCC(Oc2ncnc3c2CCN3c2ccc(S(C)(=O)=O)cc2F)CC1 — 2-fold lower, 50.1 nM
- CC(C)OC(=O)N1CCC(Oc2ncnc3c2CCN3c2ccc(S(C)(=O)=O)nc2)CC1 — 2.5-fold higher, 251 nM
- CS(=O)(=O)c1ccc(N2CCc3c(OC4CCN(C(=S)Sc5ccccc5)CC4)ncnc32)c(F)c1 — 7.9-fold lower, 12.6 nM
- CC(C)OC(=O)N1CCC(Oc2ncnc3c2CCN3c2ccc([S@+](C)[O-])cc2F)CC1 — 2-fold lower, 50.1 nM
- CC(C)OC(=O)N1CCC(Oc2cccc3c2CCN3c2ccc(S(C)(=O)=O)cc2F)CC1 — 10-fold higher, 1000 nM
- CC(C)(C)COC(=O)N1CCC(Oc2ncnc3c2CCN3c2ccc(S(C)(=O)=O)cc2F)CC1 — 2.5-fold lower, 39.8 nM
- Cc1cc(S(C)(=O)=O)ccc1N1CCc2c(OC3CCN(C(=O)OC(C)C)CC3)ncnc21 — the same, 100 nM
- CC(C)OC(=O)N1CCC(Oc2ncnc3c2CCN3c2ccc(S(=O)(=O)N(C)C)cc2)CC1 — 5-fold higher, 501 nM
- CSC(=O)N1CCC(Oc2ncnc3c2CCN3c2ccc(S(C)(=O)=O)cc2F)CC1 — 2.5-fold higher, 251 nM
- CC(C)OC(=O)N1CCC(Oc2ncnc3c2CCN3c2ccc(-c3nccs3)cc2F)CC1 — within 1.5-fold, 79.4 nM
- CS(=O)(=O)c1ccc(N2CCc3c(OC4CCN(C(=O)OCCF)CC4)ncnc32)c(F)c1 — 5-fold higher, 501 nM

System: Rattus norvegicus
Experiment: Antihyperglycemic activity in Wistar rat assessed as glucose excursion curve at 10 mg/kg, po by glucose tolerance test
Assay type: functional
Settings: not given

For N#C[C@@H]1CCCN1C(=O)CNC12CC3CC(CC(O)(C3)C1)C2, the Activity was “Active”.

System: Rattus norvegicus
Experiment: Dose normalized AUC (0 to 24 hrs) in rat at 30 mg/kg
Assay type: ADME, organism-based
Parameters: dose 30 mg/kg
Settings: in vivo

In the case of CC(C)OC(=O)N1CCC(Oc2ncnc3c2CCN3c2ccc(C#N)cc2F)CC1, the AUC/dose is reported as greater than 1 µg·h/mL.
